In ChEMBL document CHEMBL1201862, “PubChem BioAssay data set” (2004):
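All cell lines were grown in 96-well plates and treated with compound for 48 hours. GI50: concentration for 50% inhibition of growth.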 Calls of active or inactive are those of the source. Rule as the data show it: active = GI50 up to about 1.1 µM and inactive = higher.

How the values were obtained:
Test in all cases: growth of human tumour cells (NCI), 48 h
CCRF-CEM = system: CCRF-CEM
COLO 205 = system: COLO 205
HCC 2998 = system: HCC 2998
HCT-15 = system: HCT-15
HOP-92 = system: HOP-92
IGROV-1 = system: IGROV-1
K562 = system: K562
MOLT-4 = system: MOLT-4
NCI-H23 = system: NCI-H23
OVCAR-3 = system: OVCAR-3
RXF 393 = system: RXF 393
SF-268 = system: SF-268
SF-295 = system: SF-295
SK-MEL-28 = system: SK-MEL-28
SK-MEL-2 = system: SK-MEL-2
SN12C = system: SN12C
SW-620 = system: SW-620
U-251 = system: U-251
UACC-257 = system: UACC-257
UACC-62 = system: UACC-62

Compound	GI50 (CCRF-CEM)	GI50 (COLO 205)	GI50 (HCC 2998)	GI50 (HCT-15) [µM]	GI50 (HOP-92)	GI50 (IGROV-1)	GI50 (K562)	GI50 (MOLT-4)	GI50 (NCI-H23)	GI50 (OVCAR-3)	GI50 (RXF 393)	GI50 (SF-268)	GI50 (SF-295)	GI50 (SK-MEL-28)	GI50 (SK-MEL-2)	GI50 (SN12C)	GI50 (SW-620)	GI50 (U-251)	GI50 (UACC-257)	GI50 (UACC-62)
COc1ccc2c(c1)OCCc1cn[nH]c1-2	37.4 µM (inactive)	29.3 µM (inactive)	83.4 µM (inactive)	35.2	15.4 µM (inactive)	23.4 µM (inactive)	41.3 µM (inactive)	20.8 µM (inactive)	38.3 µM (inactive)	29 µM (inactive)	61.2 µM (inactive)	59.4 µM (inactive)	54.2 µM (inactive)	> 100 µM (inactive)	29.4 µM (inactive)	38.6 µM (inactive)	36.3 µM (inactive)	28.8 µM (inactive)	32.7 µM (inactive)	22.8 µM (inactive)
CCOC(=O)C1(CO)CSCCSC1	> 100 µM (inactive)	> 100 µM (inactive)	> 100 µM (inactive)	> 100	> 100 µM (inactive)	–	> 100 µM (inactive)	> 100 µM (inactive)	> 100 µM (inactive)	–	> 100 µM (inactive)	> 100 µM (inactive)	> 100 µM (inactive)	> 100 µM (inactive)	–	> 100 µM (inactive)	> 100 µM (inactive)	> 100 µM (inactive)	> 100 µM (inactive)	–
CSc1nc2c(ncn2C2OC(CO)C(O)C(O)C2O)c(=O)[nH]1 (stereo unspecified)	> 100 µM (inactive)	> 100 µM (inactive)	> 100 µM (inactive)	> 100	> 100 µM (inactive)	> 100 µM (inactive)	> 100 µM (inactive)	> 100 µM (inactive)	> 100 µM (inactive)	> 100 µM (inactive)	> 100 µM (inactive)	> 100 µM (inactive)	82.2 µM (inactive)	> 100 µM (inactive)	> 100 µM (inactive)	> 100 µM (inactive)	> 100 µM (inactive)	> 83.8 µM (inactive)	> 100 µM (inactive)	> 100 µM (inactive)
CC(C)c1cccc(C(C)C)c1NC(=S)Nc1ccccc1	41.4 µM (inactive)	> 100 µM (inactive)	> 100 µM (inactive)	> 100	> 100 µM (inactive)	> 100 µM (inactive)	70.6 µM (inactive)	> 100 µM (inactive)	> 100 µM (inactive)	> 100 µM (inactive)	75.5 µM (inactive)	> 100 µM (inactive)	> 100 µM (inactive)	> 100 µM (inactive)	> 100 µM (inactive)	> 100 µM (inactive)	> 100 µM (inactive)	> 100 µM (inactive)	> 100 µM (inactive)	> 100 µM (inactive)
O=S(=O)(CF)OCCCCOS(=O)(=O)CF	32.2 µM (inactive)	> 100 µM (inactive)	–	> 100	0.701 µM (active)	> 100 µM (inactive)	> 100 µM (inactive)	23.8 µM (inactive)	97.9 µM (inactive)	> 100 µM (inactive)	–	> 100 µM (inactive)	> 100 µM (inactive)	> 100 µM (inactive)	> 100 µM (inactive)	> 100 µM (inactive)	> 100 µM (inactive)	> 100 µM (inactive)	–	> 100 µM (inactive)
C=CCOC1OC(CS(=O)(=O)O)C(OC(C)=O)C(OC(C)=O)C1OC(C)=O (stereo unspecified)	> 100 µM (inactive)	> 100 µM (inactive)	> 100 µM (inactive)	> 100	> 100 µM (inactive)	> 100 µM (inactive)	38.1 µM (inactive)	> 100 µM (inactive)	> 100 µM (inactive)	> 100 µM (inactive)	> 100 µM (inactive)	–	> 100 µM (inactive)	> 100 µM (inactive)	> 100 µM (inactive)	> 100 µM (inactive)	> 100 µM (inactive)	> 100 µM (inactive)	> 100 µM (inactive)	> 100 µM (inactive)
CCc1nnc(-c2nsc3ccccc23)s1	42.5 µM (inactive)	> 100 µM (inactive)	> 100 µM (inactive)	72.4	69.5 µM (inactive)	76.9 µM (inactive)	54.7 µM (inactive)	38.5 µM (inactive)	> 100 µM (inactive)	24.1 µM (inactive)	> 100 µM (inactive)	> 100 µM (inactive)	–	> 100 µM (inactive)	> 100 µM (inactive)	> 100 µM (inactive)	> 100 µM (inactive)	> 100 µM (inactive)	> 100 µM (inactive)	> 100 µM (inactive)
